Assay results: US20250163074A1, “CDK Inhibitors And Their Use As Pharmaceuticals” (Prelude Therapeutics Incorporated, priority 2020, published 2025)
Where two headings read alike, the source gives them in different places.

Assays:
CDK4/Cyclin D1 = CDK4/Cyclin D1 (Homo sapiens (Human), UniProt P11802); assay: CDK4/CyclinD1 enzymatic activity assay (TR-FRET); assay type: biochemical; conditions: CDK4/CyclinD1 1 nM, ATP 2 mM, read-out: CDK4_D1 IC50
Experimental: CDK4/CyclinD1 Enzymatic Activity Assay
(§1) The inhibitory activity of compounds was evaluated in vitro using TR-FRET assay with white 384-well low volume microplate (Greiner Bio-One). CDK4/Cyclin D1 catalyzed phosphorylation of peptide in the presence and absence of compounds was measured. IC50 determination. Recombinant protein complex CDK4/Cyclin D1, expressed from insect cell, was purchased from ProQinase. Testing compounds were dissolved in DMSO at 0.1 mM and tested in 9-dose IC50 mode. The reaction mixture was prepared by mixing CDK4/CyclinD1 (1 nM final), ULight-4E-BP1 (100 nM final, Perkinelmer, TRF0128-D), and ATP (2 mM final) in assay buffer (20 mM of HEPES pH 7.4, 1 mM of EGTA, 0.05% BSA, 0.005% Tween 20, and 1 mM TCEP). The compound of interest in DMSO was added to each well in 3-fold serial dilution by dispenser (TECAN D300E). After 20 minutes preincubation at room temperature, MgCl2 (10 mM final) was added to initiate the reaction. Following a 60 minutes incubation at 37° C., the reaction was stopped by addition of 2 μL of quenching buffer consisting of Lance detection buffer (Perkinelmer CR97-100C), 2 nM LANCE Ultra Europium-anti-P-4E-BP1 (Perkinelmer, TRF0216-D), 10 mM EDTA, and incubate at room temperature for additional 60 minutes in dark. The reaction signal was measured by Envision multimode plate reader (PerkinElmer, 2102-0010). IC50 values were determined by fitting the data to the standard 4 parameters with Hill Slope using GraphPad Prism software.

CDK6/Cyclin D1 = CDK6/Cyclin D1 (Homo sapiens (Human), UniProt Q00534); assay: CDK6/CyclinD1 enzymatic activity assay (TR-FRET); assay type: biochemical; conditions: CDK6/Cyclin D1 1 nM, ATP 250 μM, read-out: CDK6_D1 IC50
Experimental: CDK6/CyclinD1 Enzymatic Activity Assay
as §1, with “CDK6/Cyclin” for “CDK4/Cyclin”, “measured and used in” for “measured.”, “CDK6/Cyclin D1” for “CDK4/CyclinD1”, “(250 μM” for “(2 mM”, “temperature, 0.1 μL” for “temperature,”

[1] = system: MCF7 adenocarcinoma cell line; assay: Cell proliferation studies in MCF7 cells (ATP-Lite); assay type: cell-based; conditions: 10 days incubation, cell viability by ATP-Lite luminescence, read-out: PROLIFERATION_CTG_MCF7 IC50
Experimental: Cell Proliferation Studies in MCF7 Cells
Cell proliferation studies were conducted in MCF7 adenocarcinoma cell line. Cells were maintained in DMEM (Corning, Catalog #: 10-013-CV) supplemented with 10% v/v FBS (Gibco, Catalog #: 26140-079), 1% v/v Penicillin Streptomycin (Gibco, Catalog #15140-122) Cells were seeded in 384-well plates at a density of 100 or 200 cells/well. Compounds dissolved in DMSO were plated in quadruplicate using a digital dispenser (D300E, Tecan) and tested on a 9-point 3-fold serial dilution. Cells were incubated for 10 days in a 37° C. active humidified incubator at 5% CO2. A media exchange and second compound addition were performed on day 5. Cell viability was measured using the ATP-Lite 1-Step Luminescence reagent (Perkin Elmer, Catalog #: 6016731) as per manufacturer's instructions. Luminescence signal was measured with a multimode plate reader (Envision 2105, Perkin Elmer). Raw data files were imported to Dotmatics Screening Ultra for IC50 analysis. Luminescence values were normalized to both background and DMSO controls to obtain a percentage of viable cells relative to DMSO vehicle control.

Sequence of CDK4/Cyclin D1 (P11802 whole entry): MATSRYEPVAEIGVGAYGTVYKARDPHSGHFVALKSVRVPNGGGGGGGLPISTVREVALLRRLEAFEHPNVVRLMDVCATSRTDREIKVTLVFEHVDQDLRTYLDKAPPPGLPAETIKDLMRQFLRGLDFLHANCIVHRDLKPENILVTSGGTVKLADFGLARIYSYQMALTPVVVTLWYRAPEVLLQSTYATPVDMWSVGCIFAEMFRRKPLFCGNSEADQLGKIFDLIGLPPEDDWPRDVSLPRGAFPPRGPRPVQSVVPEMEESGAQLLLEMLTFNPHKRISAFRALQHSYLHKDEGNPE
Sequence of CDK4/Cyclin D1 (P24385 whole entry partner): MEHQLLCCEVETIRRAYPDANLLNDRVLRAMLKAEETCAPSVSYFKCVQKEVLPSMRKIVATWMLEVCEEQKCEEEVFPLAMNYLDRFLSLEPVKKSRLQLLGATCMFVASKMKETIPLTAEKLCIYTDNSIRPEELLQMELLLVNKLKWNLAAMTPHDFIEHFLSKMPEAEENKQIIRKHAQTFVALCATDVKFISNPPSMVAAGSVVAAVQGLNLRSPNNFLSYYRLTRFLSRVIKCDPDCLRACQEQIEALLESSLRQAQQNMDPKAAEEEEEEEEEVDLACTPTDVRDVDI
Sequence of CDK6/Cyclin D1 (Q00534 whole entry): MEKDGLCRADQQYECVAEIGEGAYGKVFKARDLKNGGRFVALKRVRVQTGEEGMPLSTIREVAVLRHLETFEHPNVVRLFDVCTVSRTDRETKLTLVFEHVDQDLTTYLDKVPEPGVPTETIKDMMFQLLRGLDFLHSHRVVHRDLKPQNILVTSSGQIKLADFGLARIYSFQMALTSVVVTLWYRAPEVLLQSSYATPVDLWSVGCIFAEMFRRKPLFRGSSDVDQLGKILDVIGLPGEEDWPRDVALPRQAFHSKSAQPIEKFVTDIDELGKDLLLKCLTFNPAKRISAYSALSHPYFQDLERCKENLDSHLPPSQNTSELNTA
Sequence of CDK6/Cyclin D1 (P24385 whole entry partner): as the sequence (P24385 whole entry partner) above

IC50 (CDK4/Cyclin D1) [nM]	IC50 (CDK6/Cyclin D1) [nM]	IC50 ([1]; Homo sapiens, 240 h) [nM]	IC50 [1] [nM]	Compound
≤ 20	≤ 20	20 to 200	–	Cc1c(-c2nc(Nc3ccc(N4CC5(CCN(C)C5)C4)cn3)ncc2F)sc2c1C(=O)N(C)CC21CCC1 [Example 54, 2′-(5-Fluoro-2-((5-(6-methyl-2,6-diazaspiro[3.4]octan-2-yl)pyridin-2-yl)amino)pyrimidin-4-yl)-3′,5′-dimethyl-5′,6′-dihydro-4′H-spiro[cyclobutane-1,7′-thieno[3,2-c]pyridin]-4′-one]
≤ 20	≤ 20	–	20 to 200	Cc1c(-c2nc(Nc3ccc(N4C[C@H]5CN(C)C[C@H]5C4)cn3)ncc2F)sc2c1C(=O)N(C)CC21CCC1 [Example 57, 2′-(5-Fluoro-2-((5-((3aR,6aS)-5-methylhexahydropyrrolo[3,4-c]pyrrol-2(1H)-yl)pyridin-2-yl)amino)pyrimidin-4-yl)-3′,5′-dimethyl-5′6′-dihydro-4′H-spiro[cyclobutane-1,7′-thieno[3,2-c]pyridin]-4′-one]
≤ 20	≤ 20	20 to 200	–	Cc1c(-c2nc(Nc3ccc(C4CCN(C)CC4)cn3)ncc2Cl)sc2c1C(=O)N(C)CC21CCC1 [Example 60, 2-[5-Chloro-2-[[5-(1-methyl-piperidin-4-yl)pyridin-2-yl]amino]pyrimidin-4-yl]-3,5-dimethylspiro[6H-thieno[3,2-c]pyridine-7,1′-cyclobutane]-4-one]
≤ 20	≤ 20	–	≤ 20	CN1CC2(C1)CN(c1ccc(Nc3ncc(F)c(-c4cc5c(s4)C4(CCCC4)CN(C)C5=O)n3)nc1)C2 [Example 61, 2′-(5-Fluoro-2-((5-(6-(methyl-d3)-2,6-diazaspiro[3.3]heptan-2-yl)pyridin-2-yl)amino)pyrimidin-4-yl)-5,-(methyl-d3)-5′,6′-dihydro-4′H-spiro[cyclopentane-1,7′-thieno[3,2-c]pyridin]-4′-one]
≤ 20	20 to 200	20 to 200	–	CN1CC2(CCCC2)c2sc(-c3nc(Nc4ccc(N5CCOCC5)cn4)ncc3F)cc2C1=O [Example 62, 2′-(5-Fluoro-2-((5-morpholino-pyridin-2-yl)amino)pyrimidin-4-yl)-5′-methyl-5′,6′-dihydro-4′H-spiro[cyclopentane-1,7′-thieno[3,2-c]pyridin]-4′-one]
≤ 20	≤ 20	20 to 200	–	[2H]C([2H])([2H])N1C(=O)c2c(sc(-c3nc(Nc4ccc(C5CCN(C)CC5)cn4)ncc3F)c2C)C12CC2 [Example 70, 2′-[5-Fluoro-2-[[5-(1-methylpiperidin-4-yl)pyridin-2-yl]amino]pyrimidin-4-yl]-3′-methyl-5′-(trideuteriomethyl)spiro[cyclopropane-1,6′-thieno[2,3-c]pyrrole]-4′-one]
≤ 20	≤ 20	≤ 20	–	Cc1c(-c2nc(Nc3ccc(C4CCN(C)CC4)cn3)ncc2F)sc2c1C(=O)NC21CC1 [Example 73, 2-[5-Fluoro-2-[[5-(1-methylpiperidin-4-yl)pyridin-2-yl]amino]pyrimidin-4-yl]-3-methylspiro[5H-thieno[2,3-c]pyrrole-6,1′-cyclopropane]-4-one]

Second part, the compound before the results:

Compound	IC50 (CDK4/Cyclin D1) [nM]	IC50 (CDK6/Cyclin D1) [nM]	IC50 ([1]; Homo sapiens, 240 h) [nM]	IC50 [1] [nM]
Cc1c(-c2nc(Nc3ccc(N4CCC5(CCN(C)C5)C4)cn3)ncc2F)sc2c1C(=O)N(C)CC21CC1 (stereo not drawn) [Example 37, 2′-(5-Fluoro-2-((5-(7-methyl-2,7-diazaspiro[4.4]nonan-2-yl)pyridin-2-yl)amino)pyrimidin-4-yl)-3′,5′-dimethyl-5′,6′-dihydro-4′H-spiro[cyclopropane-1,7′-thieno[3,2-c]pyridin]-4′-one]	≤ 20	≤ 20	20 to 200	–
CN1CCC(c2ccc(Nc3nc(-c4cc5c(s4)C4(CC4)CN(C)C5=O)ncc3C(F)(F)F)nc2)CC1 [Example 40, 5-Methyl-2-[4-[[5-(1-methylpiperidin-4-yl)pyridin-2-yl]amino]-5-(trifluoromethyl)pyrimidin-2-yl]spiro[6H-thieno[3,2-c]pyridine-7,1′-cyclopropane]-4-one]	≤ 20	≤ 20	≤ 20	–
Cc1cnc(Nc2ccc(N3CCC4(CC3)CN(C)C4)cn2)nc1-c1cc2c(s1)C1(CC1)CN(C)C2=O [Example 43, 5-methyl-2-[5-Methyl-2-[[5-(2-methyl-2,7-diazaspiro[3.5]nonan-7-yl)pyridin-2-yl]amino]pyrimidin-4-yl]spiro[6H-thieno[3,2-c]pyridine-7,1′-cyclopropane]-4-one]	≤ 20	≤ 20	20 to 200	–
CCN1CC2(C1)CN(c1ccc(Nc3ncc(Cl)c(-c4cc5c(s4)C4(CC4)CN(C)C5=O)n3)nc1)C2 [Example 45, 2-[5-Chloro-2-[[5-(6-ethyl-2,6-diazaspiro[3.3]heptan-2-yl)pyridin-2-yl]amino]pyrimidin-4-yl]-5-methylspiro[6H-thieno[3,2-c]pyridine-7,1′-cyclopropane]-4-one]	≤ 20	≤ 20	≤ 20	–
CN1CC2(CCC2)c2sc(-c3nc(Nc4ccc(N5CC6CC(C5)N6C)cn4)ncc3F)cc2C1=O [Example 46, 2′-(5-Fluoro-2-((5-(6-methyl-3,6-diazabicyclo[3.1.1]heptan-3-yl)pyridin-2-yl)amino)pyrimidin-4-yl)-5′-methyl-5′,6′-dihydro-4′H-spiro[cyclobutane-1,7′-thieno[3,2-c]pyridin]-4′-one]	≤ 20	20 to 200	20 to 200	–
CCN1CC2(C1)CN(c1ccc(Nc3ncc(F)c(-c4sc5c(c4C)C(=O)N(C)CC54CCC4)n3)nc1)C2 [Example 52, 2′-(2-((5-(6-Ethyl-2,6-diazaspiro[3.3]heptan-2-yl)pyridin-2-yl)amino)-5-fluoropyrimidin-4-yl)-3′,5′-dimethyl-5′,6′-dihydro-4′H-spiro[cyclobutane-1,7′-thieno[3,2-c]pyridin]-4′-one]	≤ 20	≤ 20	20 to 200	–
CN1CC2(CCC2)c2sc(-c3nc(Nc4ccc(N5CCN6CCC5CC6)cn4)ncc3F)cc2C1=O [Example 53, 2′-(2-((5-(1,4-Diazabicyclo[3.2.2]nonan-4-yl)pyridin-2-yl)amino)-5-fluoropyrimidin-4-yl)-5′-methyl-5′,6′-dihydro-4′H-spiro[cyclobutane-1,7′-thieno[3,2-c]pyridin]-4′-one]	≤ 20	20 to 200	20 to 200	–
CN1CCC(c2ccc(Nc3nc(-c4cc5c(s4)C4(CCC4)CN(C)C5=O)ncc3C(F)(F)F)nc2)CC1 [Example 58]	≤ 20	≤ 20	–	≤ 20
